Data published in ChEMBL document CHEMBL3217712, “Improved biodistribution, pharmacokinetics and photodynamic efficacy using a new photostable sulfonamide bacteriochlorin” (Medchemcomm, 2012).

Tested on: S91
Test: Photodynamic efficacy against mouse Cloudman S91 cells allografted in DBA mouse assessed as time of tumor growth delay at 2 mg/kg, iv followed by irradiated with 70 mW cm'-2 diode laser light for 25 mins
Format: functional

O=S(=O)(O)c1ccc(Cl)c(-c2c3nc(c(-c4cc(S(=O)(=O)O)ccc4Cl)c4ccc([nH]4)c(-c4cc(S(=O)(=O)O)ccc4Cl)c4nc(c(-c5cc(S(=O)(=O)O)ccc5Cl)c5ccc2[nH]5)CC4)C=C3)c1
Time: 29 days
